The conditions of data set [1]: human, in vivo.
In data set [2] the test system is MOLM-13 cells. As to the kind of experiment: Tumor-bearing mice transplanted with MOLM-13 cells, with cytarabine and daunorubicin, T/C (Example 11). The class given is in vivo. Conditions: MOLM-13 tumor-bearing mice, oral, 17 days. On the procedure:
(§1) Cytarabine (Cylocide Injection 200 mg/10 mL, Nippon Shinyaku Co., Ltd.) was diluted with saline (Otsuka Saline Injection, Otsuka Pharmaceutical Factory Co., Ltd.) to 8 mg/mL. Daunorubicin (Daunomycin for injection 20 mg, Meiji, Seika Pharma Co., Ltd.) was dissolved in saline (Otsuka Saline Injection, Otsuka Pharmaceutical Factory Co., Ltd.) to 0.2 mg/mL.
(§2) MOLM-13 cells (DSMZ) were intradermally implanted around the ventral region of 8-week old NOD. CB17-PrkdcSCID/J mice (female, The Jackson Laboratory Japan) at 1×10^6 cells/mouse. […] Cytarabine was intraperitoneally administered to the mice at a dose of 80 mg/kg once a day for 5 days. Daunorubicin was intravenously administered to the mice at a dose of 1 mg/kg once a day for 3 days. The tumor volume was measured over time from the start of the administration, and the reduction effect of the tumor volume due to the compound-administration was evaluated. The tumor volume was calculated by the following formula using short axis and long axis of the tumor measured with an electronic caliper (Mitutoyo).
(§3) The control administration group in which only the solvent was administered and the test substance administration group were compared, and T/C was calculated using the following formula to evaluate the antitumor effect.

Data set [3] deals with acute leukemia with MLLr or NPM1m. As to the kind of experiment: Phase 1/2 clinical study, clinical activity (responses by ELN 2017). The class given is in vivo, human. On the procedure:
In the present test, signs of clinical activity have been observed, including decreases and normalization of bone marrow blasts, elimination of blasts in peripheral blood, and responses according to European LeukemiaNet 2017 Response Criteria. A patient with MLLr assigned to 120 mg BID in Arm A achieved MLFS (morphologic leukemia-free state), while a patient with MLLr assigned to 60 mg BID with azoles in Arm B achieved CRh (complete remission with partial hematological recovery) and CRi (complete remission with incomplete hematologic recovery). Substantial changes in several biomarkers have also been observed, including decreases in HOXA9, PBX3, and MEIS1, and increases in CD11b. These changes have been particularly notable in patients with MLLr or NPM1m.
(1) Of 43 patients enrolled, 17 patients had MLLr and 9 patients had NPM1m, with 19 evaluable at the time of data extraction and 5 responders per ELN 2017 (FIG. 7A). At 200 mg BID in Arm B, 4 evaluable patients had MLLr or NPM1m (n=1 and 3, respectively) and 1 patient achieved CRh/CRi, 1 patient achieved CRi, and 1 patient achieved MLFS. Two additional patients with MLLr also achieved response per ELN2017 at lower dose levels (CRh/CRi and MLFS).

Data set [4] relates to OCI-AML3 cells. As to the kind of experiment: Tumor-bearing mice transplanted with OCI-AML3 cells, with cytarabine and daunorubicin, T/C (Example 14). The class given is in vivo. Conditions: oral, 21 days. On the procedure:
as §1
as §2, with “OCI-AML3” for “MOLM-13”, “7-week” for “8-week”
as §3

The subject of data set [5] is OCI-AML3 cells. As to the kind of experiment: Tumor-bearing mice transplanted with OCI-AML3 cells, with venetoclax and azacitidine, T/C (Example 13). The class given is in vivo. To be noted: oral, 21 days. On the procedure:
The present compound was weighed and dissolved in 0.5 w/v % Methyl Cellulose 400 solution to give the compound concentrations of 20 mg/mL and 10 mg/mL. Venetoclax was weighed and suspended in a mixed solution of Phosal 50 propylene glycol (60%)/Polyethylene glycol-400 (30%)/Ethanol (10%) to give the compound concentration of 5 mg/mL. Azacitidine was weighed and dissolved in saline to give the compound concentration of 0.3 mg/mL.
OCI-AML3 cells (DSMZ) were intradermally implanted around the ventral region of 6-week old NOD. CB17-PrkdcSCID/J mice (female, The Jackson Laboratory Japan) at 1×10^6 cells/mouse. […] The tumor volume was measured over time from the start of the administration, and the reduction effect of the tumor volume due to the compound-administration was evaluated. The tumor volume was calculated by the following formula using short axis and long axis of the tumor measured with an electronic caliper (Mitutoyo).
as §3

The test system of data set [6] is MOLM-13 cells. As to the kind of experiment: Tumor-bearing mice transplanted with MOLM-13 cells, with gilteritinib, T/C (Example 12). The class given is in vivo. To be noted: MOLM-13 tumor-bearing mice, oral, 18 days. On the procedure: The antitumor effects of the present compound and gilteritinib were evaluated. The present compound was weighed and dissolved in 0.5 w/v % Methyl Cellulose 400 solution to give the compound concentrations of 20 mg/mL and 10 mg/mL. Gilteritinib was weighed and suspended in 0.5 w/v % Methyl Cellulose 400 solution to give the compound concentrations of 3 mg/mL.
MOLM-13 cells (DSMZ) were intradermally implanted around the ventral region of 5-week old NOD. CB17-PrkdcSCID/J mice (female, The Jackson Laboratory Japan) at 1×10^6 cells/mouse. After confirming the engraftment of MOLM-13 cells 6 days after the transplantation, the present compound was orally administered to the mice at a dose of 100 mg/kg or 200 mg/kg, and gilteritinib was orally administered to the mice at a dose of 30 mg/kg, once a day for 18 days. The tumor volume was measured over time from the start of the administration, and the reduction effect of the tumor volume due to the compound-administration was evaluated. The tumor volume was calculated by the following formula using short axis and long axis of the tumor measured with an electronic caliper (Mitutoyo).
as §3

Setting [7] is: 200 mg BID Arm B, 4 evaluable patients with MLLr or NPM1m.

For orientation: T/C means the ratio of treated to control. In the case of `C=C1C[C@@H]2CC[C@H]1[C@@H](C(=O)N1CCC3(CC1)CN(c1ncncc1Oc1ccc(F)cc1C(=O)N(C(C)C)C(C)C)C3)N2` [the present compound, 5-fluoro-2-[(4-{7-[(1S,3S,4R)-5-methylidene-2-azabicyclo[2.2.2]octane-3-carbonyl]-2,7-diazaspiro[3.5]nonan-2-yl}pyrimidin-5-yl)oxy]-N,N-di(propan-2-yl)benzamide], the “SAE COVID-19, CTCAE Grade” value in data set [1] is reported as 3. For the same compound, the T/C came to 29.8% in the data set on MOLM-13 cells [2] (100 mg/kg); 0.3% in the data set on MOLM-13 cells [2] (200 mg/kg); 53.1% in the data set on OCI-AML3 cells [4] (100 mg/kg); 41.7% in the data set with OCI-AML3 cells [4] (200 mg/kg); 47.1% in the data set on OCI-AML3 cells [5] (100 mg/kg); 34.3% in the data set with OCI-AML3 cells [5] (200 mg/kg). Also, the T/C came out at 43.8% in the data set on MOLM-13 cells [6] (100 mg/kg) and 1.8% with MOLM-13 cells [6] (200 mg/kg). The “patients who achieved CRh/CRi” value in data set [3] (setting [7]) came out at 1 patient. Also, the “patients who achieved CRi” value in data set [3] (setting [7]) turned out to be 1 patient. The “patients who achieved MLFS” value in data set [3] (setting [7]) is recorded as 1 patient. The “response achieved (ELN 2017)” value in data set [3] (a patient with MLLr, 60 mg BID with azoles Arm B) is “CRh and CRi”.

Source of the values: US20260248787A9, “MEDICAMENT FOR TREATING CANCER COMPRISING OPTICALLY ACTIVE AZABICYCLO RING DERIVATIVE” (Sumitomo Pharma Co., Ltd., priority 2023, published 2026).
